Measured values published in PubChem BioAssay (NCI).
Values joined by “and” are separate entries in the source; they are usually repeats but may differ in a detail not shown here. Equal values may be shown once.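 Growth conditions: 96-well plates. Treatment: test compound, 48 hours, 5 concentrations. Analysis: linear interpolation between bracketing concentrations; unreached endpoints set to highest concentration. Here, GI50 denotes the concentration required for 50% inhibition of growth. TGI marks complete inhibition of growth.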

Legend:
Experiment in all cases: NCI-60 cell line screen, 48 h
SR leukemia = tested on: SR leukemia
KM12 colon = tested on: KM12 colon
SK-MEL-2 melanoma = tested on: SK-MEL-2 melanoma
NCI-H23 lung = tested on: NCI-H23 lung
A549 NSCLC = tested on: A549 NSCLC
HT29 colon = tested on: HT29 colon
RPMI-8226 leukemia = tested on: RPMI-8226 leukemia
SK-MEL-28 melanoma = tested on: SK-MEL-28 melanoma
CCRF-CEM leukemia = tested on: CCRF-CEM leukemia
UO-31 renal = tested on: UO-31 renal

| Structure (SMILES) | GI50 (SR leukemia) [µM] | TGI (SR leukemia) [µM] | GI50 (KM12 colon) [µM] | TGI (KM12 colon) [µM] | GI50 (SK-MEL-2 melanoma) [µM] | TGI (SK-MEL-2 melanoma) [µM] | GI50 (NCI-H23 lung) [µM] | TGI (NCI-H23 lung) [µM] | GI50 (A549 NSCLC) [µM] | TGI (A549 NSCLC) [µM] | GI50 (HT29 colon) | TGI (HT29 colon) | GI50 (RPMI-8226 leukemia) [µM] | TGI (RPMI-8226 leukemia) [µM] | GI50 (SK-MEL-28 melanoma) | TGI (SK-MEL-28 melanoma) | TGI (CCRF-CEM leukemia) [µM] | TGI (UO-31 renal) [µM] | GI50 (UO-31 renal) [µM] | GI50 (CCRF-CEM leukemia) |
| --- | --- | --- | --- | --- | --- | --- | --- | --- | --- | --- | --- | --- | --- | --- | --- | --- | --- | --- | --- | --- |
| COC12C=C/C(=C(/C(=O)OCc3ccccn3)C(=O)CCCCCCCCC3(OC)C=C/C(=C(/C(=O)OCc4ccccn4)C(=O)CCCCCCCC1)O3)O2 | 0.364 | > 100 | 0.354 | 1.39 | 1.18 | 3.85 | 0.249 | 0.689 | 0.626 | 3.49 | 0.423 µM | 2.89 µM | 0.371 | 1.85 | 0.481 µM | 3.62 µM | – | – | – | – |
| CCOP(=O)(OCC)C1CCCOC1=O (stereo not given) | – | – | – | > 100 | – | > 100 | – | > 100 | – | > 100 | – | > 100 µM | – | > 100 | – | > 100 µM | > 100 | > 100 | – | – |
| Nc1ccc(C2=CC(c3ccc(Cl)cc3)N3C=CSC3=N2)cc1 (stereo not given) | 2.1 | 5.51 | 1.95 | 3.86 | 26.3 | 59.3 | 17.8 | 46.8 | 3.68 | 53.4 | 2.79 µM | 6.98 µM | – | – | 4.86 µM | 16.6 µM | – | 11 | 2.33 | – |
| C[CH2][Ge]([CH2]C)([CH2]C)[O]C(=O)C(OC(C)=O)c1ccccc1 (stereo not given) | – | – | > 100 | > 100 | – | – | > 100 | > 100 | > 100 | > 100 | > 100 µM | > 100 µM | 31 | > 100 | > 100 µM | > 100 µM | > 100 | > 100 | > 100 | 24.1 µM |
| CC(=O)c1c2c(cc3c1CC1(C3)Cc3cc4c(c(C(C)=O)c3C1)CCC4)CCC2 | – | > 100 | – | > 100 | – | – | – | > 100 | – | > 100 | – | > 100 µM | – | – | – | > 100 µM | > 100 | > 100 | – | – |
| COC(=O)N/N=C(\C)c1c(O)cc(C)oc1=O | – | > 100 | – | > 100 | – | > 100 | – | > 100 | – | > 100 | – | > 100 µM | – | – | – | > 100 µM | > 100 | > 100 | – | – |
| COc1ccc2c(c1)c(-c1nc(-c3c[nH]c4ccncc34)cs1)cn2C | – | – | 1.73 | 3.2 | 1.84 | 3.4 | 1.82 | 3.39 | 1.87 | 3.46 | 1.2 µM | 2.62 µM | 1.83 | 3.83 | 1.63 µM | 3.04 µM | 3.64 | 2.97 | 1.58 | 1.83 µM |
| Cc1cccc(C)c1NC(=O)C1=NC(=S)NC(c2ccccc2)C1c1nc2ccccc2s1 (stereo not given) | – | > 100 | – | > 100 | – | > 100 | – | > 100 | – | > 100 | – | > 100 µM | – | – | – | > 100 µM | > 100 | > 100 | – | – |
| COC(=O)C1Cc2c(n(C)c3ccccc23)C(CCC(=O)O)N1Cc1ccccc1 (stereo not given) | – | – | – | 81.4 | – | > 100 | – | 80.7 | – | > 100 | – | > 100 µM | – | 75.2 | – | 58.2 µM | > 100 | 51.4 | – | – |
| CCCCCCCCCCCCCCCCCCn1cc[n+](C)c1 | 1.24 | > 100 | 0.275 | 0.879 | – | – | – | – | – | – | 0.403 µM and 0.358 µM | 1.64 µM and 1.45 µM | 0.0268 | 0.233 | 1.01 µM and 1.15 µM | 2.41 µM and 2.59 µM | – | 2.41 | 1.03 | 0.127 µM and 0.458 µM |
| N#C/C(=C/c1ccc2c(c1)OCO2)C(=O)c1ccccc1 | – | – | – | > 100 | – | > 100 | – | > 100 | – | > 100 | – | > 100 µM | – | > 100 | – | > 100 µM | > 100 | > 100 | – | – |
| COC(=O)C1=C(O)[C@H](C(=O)OC)C2(O)C(C(=O)OC)[C@H](c3ccc(OC(=O)C(C)c4ccc(CC(C)C)cc4)cc3)C[C@@H]1[C@@H]2C(=O)OC (stereo not given in full) | 0.754 | > 50 | 40.3 | > 50 | 24.9 | > 50 | 11.1 | 24.9 | 26.8 | > 50 | – | – | 4.62 | > 50 | 12.6 µM | 40.8 µM | – | > 50 | 12.3 | – |
| CC(=O)[O-].Cn1ccnc1CNCc1nccn1C.[Cu+2].[O-][Cl+3]([O-])([O-])[O-] | – | – | > 100 | > 100 | – | – | > 100 | > 100 | > 100 | > 100 | > 100 µM | > 100 µM | > 100 | > 100 | > 100 µM | > 100 µM | > 100 | – | – | > 100 µM |
| c1ccc2c3c([nH]c2c1)[C@H]1C2CCCCN2CN1CC3 (stereo not given in full) | – | – | – | – | – | > 100 | – | > 100 | – | > 100 | – | > 100 µM | – | > 100 | – | > 100 µM | > 100 | > 100 | – | – |
| COCN1COCN=C1NC#N | – | > 100 | – | > 100 | – | > 100 | – | > 100 | – | > 100 | – | > 100 µM | – | > 100 | – | > 100 µM | – | > 100 | – | – |
| CC1=C(c2ccccc2)C(O)(c2ccccc2)C(C)C1=O (stereo not given) | 3.75 | > 100 | 7.52 | > 100 | 29.7 | > 100 | 10.1 | 46.4 | 32.5 | > 100 | 10.5 µM | > 100 µM | – | – | 25.5 µM | > 100 µM | > 100 | > 100 | 13.2 | 23.7 µM |
| CC1=C(SCCC(=O)OC(C[Se]C2=C(C)C(=O)c3ccccc3C2=O)C(=O)NCCCCCC(=O)OCc2ccccc2)C(=O)c2ccccc2C1=O (stereo not given) | – | – | 1.4 | 4.07 | 5.5 | 18.9 | 2.76 | 7.84 | 3.95 | 11.4 | 3.56 µM | 13.3 µM | 2.65 | 7.76 | 11.9 µM | 24.7 µM | > 100 | 15.3 | 2.51 | 2.82 µM |
